This note sets out measurements from ChEMBL document CHEMBL5390264, “Exploring Fatty Acid Mimetics as NR4A Ligands” (J Med Chem, 2023).

The target in experiment [1] is Nuclear receptor subfamily 4 group A member 3 (Homo sapiens, UniProt Q92570). Nature of the experiment: Agonist activity at human NOR-1 LBD transiently transfected in HEK293T cells assessed as maximal activation incubated for 16 hrs by Gal4-hybrid reporter gene based Dual-glo luciferase assay relative to control. To be noted: filed as agonist. It counts as cell-based. In general terms: In a reporter assay the amount or activity of a reporter protein is the signal.

For experiment [2], the target named is T1, Peroxisome proliferator-activated receptor delta (Homo sapiens) (UniProt Q03181).
T1 sequence (whole entry): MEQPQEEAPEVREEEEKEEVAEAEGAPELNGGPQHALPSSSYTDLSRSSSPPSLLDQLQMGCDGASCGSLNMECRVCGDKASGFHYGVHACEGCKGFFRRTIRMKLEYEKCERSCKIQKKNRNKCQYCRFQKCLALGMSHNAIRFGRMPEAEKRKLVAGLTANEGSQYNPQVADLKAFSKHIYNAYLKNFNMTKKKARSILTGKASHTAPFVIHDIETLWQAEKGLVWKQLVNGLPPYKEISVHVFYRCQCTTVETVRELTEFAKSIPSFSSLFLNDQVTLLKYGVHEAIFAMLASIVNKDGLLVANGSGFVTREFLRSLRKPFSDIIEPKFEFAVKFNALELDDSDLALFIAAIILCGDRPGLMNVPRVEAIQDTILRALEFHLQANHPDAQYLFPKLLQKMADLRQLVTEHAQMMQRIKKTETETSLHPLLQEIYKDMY
Nature of the experiment: Agonist activity at PPARdelta LBD (unknown origin) transiently transfected in HEK293T cells at 1 uM incubated for 16 hrs by Gal4-hybrid reporter gene based Dual-glo luciferase assay. The class given is cell-based.

The target in experiment [3] is T2, Bile acid receptor (Homo sapiens) (UniProt Q96RI1).
T2 sequence (whole entry): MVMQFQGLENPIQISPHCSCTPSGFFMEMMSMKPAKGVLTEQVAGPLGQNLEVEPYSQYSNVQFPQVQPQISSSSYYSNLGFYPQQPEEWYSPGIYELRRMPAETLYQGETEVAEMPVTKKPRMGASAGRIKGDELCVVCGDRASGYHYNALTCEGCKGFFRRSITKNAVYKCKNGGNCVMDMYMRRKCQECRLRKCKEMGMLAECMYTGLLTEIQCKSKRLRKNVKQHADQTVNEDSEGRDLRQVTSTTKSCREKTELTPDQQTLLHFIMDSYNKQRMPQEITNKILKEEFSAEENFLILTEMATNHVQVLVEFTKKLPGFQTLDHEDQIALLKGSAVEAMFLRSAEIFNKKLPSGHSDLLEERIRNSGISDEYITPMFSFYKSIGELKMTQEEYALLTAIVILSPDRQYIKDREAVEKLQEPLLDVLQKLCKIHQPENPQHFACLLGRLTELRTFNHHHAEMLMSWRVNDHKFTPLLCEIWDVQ
As to the kind of experiment: Agonist activity at FXR LBD (unknown origin) transiently transfected in HEK293T cells at 1 uM incubated for 16 hrs by Gal4-hybrid reporter gene based Dual-glo luciferase assay. The class given is cell-based.

Experiment [4] has as its target T3, Retinoic acid receptor RXR-alpha (Homo sapiens) (UniProt P19793).
T3 sequence (whole entry): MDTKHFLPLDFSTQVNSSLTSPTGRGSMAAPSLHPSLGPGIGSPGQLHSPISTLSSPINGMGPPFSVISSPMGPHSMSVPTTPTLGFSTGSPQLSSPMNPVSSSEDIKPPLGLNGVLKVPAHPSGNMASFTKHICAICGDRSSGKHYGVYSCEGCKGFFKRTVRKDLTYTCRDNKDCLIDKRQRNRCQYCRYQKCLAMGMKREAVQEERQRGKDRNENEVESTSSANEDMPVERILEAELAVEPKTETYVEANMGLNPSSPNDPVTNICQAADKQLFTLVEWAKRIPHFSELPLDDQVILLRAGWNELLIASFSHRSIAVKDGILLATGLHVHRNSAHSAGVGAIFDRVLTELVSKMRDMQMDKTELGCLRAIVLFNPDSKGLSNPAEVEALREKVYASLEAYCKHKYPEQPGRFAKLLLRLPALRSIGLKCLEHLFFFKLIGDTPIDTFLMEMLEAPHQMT
As to the kind of experiment: Agonist activity at human full length RXRalpha transiently transfected in HEK293T cells at 1 uM incubated for 16 hrs by Gal4-hybrid reporter gene based Dual-glo luciferase assay. It counts as cell-based.

Experiment [5] can be described thus: Selectivity ratio for agonist activity at PPARgamma LBD (unknown origin) transiently transfected in HEK293T cells to agonist activity at human Nur77 LBD transiently transfected in HEK293T cells. The class given is cell-based.
Experiment [6] is described as follows: Selectivity ratio for agonist activity at PPARdelta LBD (unknown origin) transiently transfected in HEK293T cells to agonist activity at human Nur77 LBD transiently transfected in HEK293T cells. It counts as cell-based.
Experiment [7] can be described thus: Selectivity ratio for agonist activity at THRalpha LBD (unknown origin) transiently transfected in HEK293T cells to agonist activity at human Nurr1 LBD transiently transfected in HEK293T cells. The class given is cell-based.
The nature of experiment [8]: Selectivity ratio for agonist activity at PPARalpha LBD (unknown origin) transiently transfected in HEK293T cells to agonist activity at human Nurr1 LBD transiently transfected in HEK293T cells. The class given is cell-based.
Experiment [9] can be described thus: Selectivity ratio for agonist activity at PPARdelta LBD (unknown origin) transiently transfected in HEK293T cells to agonist activity at human Nurr1 LBD transiently transfected in HEK293T cells. The class given is cell-based.
Experiment [10] is described as follows: Selectivity ratio for agonist activity at FXR LBD (unknown origin) transiently transfected in HEK293T cells to agonist activity at human Nurr1 LBD transiently transfected in HEK293T cells. It counts as cell-based.
Experiment [11] can be described thus: Selectivity ratio for agonist activity at RXRalpha LBD (unknown origin) transiently transfected in HEK293T cells to agonist activity at human Nurr1 LBD transiently transfected in HEK293T cells. It counts as cell-based.
Experiment [12] in a line: Selectivity ratio for agonist activity at PPARalpha LBD (unknown origin) transiently transfected in HEK293T cells to agonist activity at human NOR-1 LBD transiently transfected in HEK293T cells. The class given is cell-based.
Experiment [13] in a line: Selectivity ratio for agonist activity at PPARdelta LBD (unknown origin) transiently transfected in HEK293T cells to agonist activity at human NOR-1 LBD transiently transfected in HEK293T cells. The class given is cell-based.
Experiment [14] can be described thus: Selectivity ratio for agonist activity at FXR LBD (unknown origin) transiently transfected in HEK293T cells to agonist activity at human NOR-1 LBD transiently transfected in HEK293T cells. It counts as cell-based.
A short description of experiment [15]: Selectivity ratio for agonist activity at RXRalpha LBD (unknown origin) transiently transfected in HEK293T cells to agonist activity at human NOR-1 LBD transiently transfected in HEK293T cells. It counts as cell-based.
Experiment [16] concerns the target T4, Nuclear receptor subfamily 4 group A member 2 (Homo sapiens, UniProt P43354). As to the kind of experiment: Agonist activity at full length human Nurr1 transiently transfected in HEK293T cells co-transfected with pFR-Luc-NBRE incubated for 16 hrs by Gal4-hybrid reporter gene based Dual-glo luciferase assay. The class given is cell-based.
Experiment [17] concerns the target T4, Nuclear receptor subfamily 4 group A member 2. As to the kind of experiment: Agonist activity at full length human Nurr1 transiently transfected in HEK293T cells co-transfected with pFR-Luc-NurRE incubated for 16 hrs by Gal4-hybrid reporter gene based Dual-glo luciferase assay. The class given is cell-based.
The target is the same in experiment [18]. To be noted: filed as agonist, dose 100.0 µM.

The source made the active and inactive calls. The calls are words filed in the database; no cut-off is given here.

T4 sequence (P43354 whole entry, the tested form may be a part): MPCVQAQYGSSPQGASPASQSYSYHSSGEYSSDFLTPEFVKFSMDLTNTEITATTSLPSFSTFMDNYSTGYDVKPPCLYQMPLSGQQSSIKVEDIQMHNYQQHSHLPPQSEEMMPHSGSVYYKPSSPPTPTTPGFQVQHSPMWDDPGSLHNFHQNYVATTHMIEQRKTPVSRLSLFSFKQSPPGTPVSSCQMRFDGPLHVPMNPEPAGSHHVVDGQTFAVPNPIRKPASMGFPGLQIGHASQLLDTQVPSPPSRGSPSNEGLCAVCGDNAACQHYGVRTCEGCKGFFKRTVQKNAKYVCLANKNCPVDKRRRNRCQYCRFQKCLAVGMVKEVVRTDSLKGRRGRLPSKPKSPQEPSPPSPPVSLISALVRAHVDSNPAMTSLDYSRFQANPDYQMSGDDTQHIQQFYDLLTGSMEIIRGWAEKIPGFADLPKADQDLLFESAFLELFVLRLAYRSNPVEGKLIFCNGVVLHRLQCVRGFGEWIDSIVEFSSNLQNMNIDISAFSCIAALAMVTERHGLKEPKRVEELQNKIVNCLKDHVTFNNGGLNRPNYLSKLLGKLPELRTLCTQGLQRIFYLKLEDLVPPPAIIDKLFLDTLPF
Sequence of Nuclear receptor subfamily 4 group A member 3 (Q92570 whole entry, the tested form may be a part): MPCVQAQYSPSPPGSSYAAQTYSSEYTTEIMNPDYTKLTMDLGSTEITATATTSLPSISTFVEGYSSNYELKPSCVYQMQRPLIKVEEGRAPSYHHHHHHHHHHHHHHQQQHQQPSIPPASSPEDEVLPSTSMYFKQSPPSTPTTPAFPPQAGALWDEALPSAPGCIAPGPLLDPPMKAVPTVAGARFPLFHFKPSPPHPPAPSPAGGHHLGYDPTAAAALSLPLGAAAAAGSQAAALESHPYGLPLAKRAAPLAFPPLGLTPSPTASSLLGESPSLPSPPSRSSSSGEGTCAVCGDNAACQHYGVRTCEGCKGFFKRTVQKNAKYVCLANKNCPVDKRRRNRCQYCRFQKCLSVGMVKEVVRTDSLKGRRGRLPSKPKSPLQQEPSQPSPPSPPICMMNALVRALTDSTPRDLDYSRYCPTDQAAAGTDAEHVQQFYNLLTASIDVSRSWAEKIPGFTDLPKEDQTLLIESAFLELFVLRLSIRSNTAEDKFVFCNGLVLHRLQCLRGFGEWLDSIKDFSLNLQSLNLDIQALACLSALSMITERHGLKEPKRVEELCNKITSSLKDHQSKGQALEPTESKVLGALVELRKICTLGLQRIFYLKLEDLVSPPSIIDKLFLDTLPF

For orientation: Emax means the greatest response seen or fitted, relative to the assay's reference. What is called EC50 is the concentration needed to bring the measured effect to its halfway point. For `CC(C)(C)c1ccc(COc2cccc(C(=O)O)c2)cc1`, the Emax in experiment [1] stood at 185%. The outcome in [2], in experiment [3] and in experiment [4] was inactive. Also, the Selectivity ratio in [5], in [6], in [7], in experiment [8], in experiment [9] and in [10] was over 30 throughout. Moreover, the Selectivity ratio in experiment [11], in [12], in experiment [13], in experiment [14] and in experiment [15] was over 30 in each case. For the same compound, the EC50 was determined as 13 nM in [16] and 10 nM in experiment [17]. Also, in [18], the deltaH was -4 kcal/mol.
